Where two headings read alike, the source gives them in different places.
Tests used:
Assay type in all cases: cell-based
HTT mRNA = assay: Splicing RT-qPCR assay, HTT canonical (CJ) and alternative (AJ) junction mRNA; details: Homo sapiens; for EC50: AC50 = 50% response in AJ mRNA increase
Procedure: (§1) Compounds described herein were used to modulate RNA transcript abundance in cells. The expression of a target mRNA was measured by detecting the formation of an exon-exon junction in the canonical transcript (CJ). A compound mediated exon-inclusion event was detected by observing an increase in formation of a new junction with an alternative exon (AJ). Real-time qPCR assays were used to detect these splicing switches and interrogate the potency of various compounds towards different target genes. A high-throughput real time quantitative PCR (RT-qPCR) assay was developed to measure these two isoforms of the mRNA (CJ and AJ) for exemplary genes, such as HTT, SMN2, and MYB, together with a control housekeeping gene, GAPDH or GUSB or PPIA, used for normalization. Briefly, the A673 or K562 cell line was treated with various compounds described herein (e.g., compounds of Formula (I)). After treatment, the levels of the HTT, MYB, or SMN2 mRNA targets were determined from each sample of cell lysate by cDNA synthesis followed by qPCR.
(§2) The A673 cell line was cultured in DMEM with 10% FBS. Cells were diluted with full growth media and plated in a 96-well plate (15,000 cells in 100 ul media per well). The plate was incubated at 37° C. with 5% CO2 for 24 hours to allow cells to adhere. An 11-point 3-fold serial dilution of the compounds was made in DMSO then diluted in media in an intermediate plate. Compounds were transferred from the intermediate plate to the cell plate with the top dose at a final concentration of 10 uM in the well. Final DMSO concentration was kept at or below 0.25%. The cell plate was returned to the incubator at 37° C. with 5% CO2 for an additional 24 hours.
(§3) The K562 cell line was cultured in IMDM with 10% FBS. For K562, cells were diluted with full growth media and plated in either a 96-well plate (50,000 cells in 50 uL media per well) or a 384-well plate (8,000-40,000 cells in 45 uL media per well). An 11-point 3-fold serial dilution of the compounds were made in DMSO then diluted in media in an intermediate plate. Compound was transferred from the intermediate plate to the cell plate with the top dose at a final concentration of 10 uM in the well. Final DMSO concentration was kept at or below 0.25%. Final volume was 100 uL for 96-well plate and 50 uL for 384-well plate. The cell plate was then placed in an incubator at 37° C. with 5% CO2 for 24 hours.
(§4) The cells were then gently washed with 50 uL-100 uL cold PBS before proceeding to addition of lysis buffer. 30 uL-50 uL of room temperature lysis buffer with DNAse I (and optionally RNAsin) was added to each well. Cells were shaken/mixed thoroughly at room temperature for 5-10 minutes for lysis to take place and then 3 uL-5 uL of room temperature stop solution was added and wells were shaken/mixed again. After 2-5 minutes, the cell lysate plate was transferred to ice for RT-qPCR reaction setup. The lysates could also be frozen at-80° C. for later use.
(§5) In some cases, a direct lysis buffer was used. An appropriate volume of 3× lysis buffer (10 mM Tris, 150 mM NaCl, 1.5%-2.5% Igepal and 0.1-1 U/uL RNAsin, pH 7.4) was directly added to either K562 or A673 cells in media and mixed by pipetting 3 times. The plates were then incubated at room temperature with shaking/rocking for 20-50 minutes to allow for lysis to take place. After this time, the cell lysate plate was transferred to ice to set up for the RT-qPCR reactions. The lysates could also be frozen at −80° C. for later use.
(§6) To set up 10 uL RT-qPCR reactions, cell lysates were transferred to 384-well qPCR plates containing the master mix according to the table below. The plates were sealed, gently vortexed, and spun down before the run. The volumes were adjusted accordingly in some instances where the reaction was carried in 20 μL. The table below summarizes the components of the RT-qPCR reactions:
(§7) The RT-qPCR reaction was performed using a QuantStudio (ThermoFisher) under the following fast cycling conditions. […]

Target C mRNA = assay: Splicing RT-qPCR gene panel, Target C canonical junction (CJ) mRNA; details: Homo sapiens; Table 8; larger gene panel, decrease in CJ mRNA levels
Procedure: as §1, §2, §3, §4, §5, §6, §7

MYB mRNA = assay: Splicing RT-qPCR assay, MYB canonical (CJ) and alternative (AJ) junction mRNA; details: Homo sapiens; for EC50: AC50 = 50% response in AJ mRNA increase
Procedure: as §1, §2, §3, §4, §5, §6, §7

SMN2 mRNA = assay: Splicing RT-qPCR gene panel, SMN2 canonical junction (CJ) mRNA; details: Homo sapiens; Table 8; larger gene panel, decrease in CJ mRNA levels
Procedure: as §1, §2, §3, §4, §5, §6, §7

[1] = Table 7, RT-qPCR, A673 or K562 cells, 24 hours treatment
[2] = Table 7, IC50 = 50% response in CJ mRNA decrease, RT-qPCR, A673 or K562 cells, 24 hours treatment, read-out: HTT CJ
[3] = Table 8, larger gene panel, decrease in CJ mRNA levels, read-out: HTT CJ IC50
[4] = Table 7, IC50 = 50% response in CJ mRNA decrease, RT-qPCR, A673 or K562 cells, 24 hours treatment, read-out: MYB CJ
[5] = Table 8, larger gene panel, decrease in CJ mRNA levels, read-out: MYB CJ IC50

Structure (SMILES)	EC50 (HTT mRNA; [1]) [µM]	IC50 (HTT mRNA; [2]) [µM]	IC50 (HTT mRNA; [3]) [µM]	IC50 (Target C mRNA) [µM]	EC50 (MYB mRNA; [1]) [µM]	IC50 (MYB mRNA; [4]) [µM]	IC50 (MYB mRNA; [5]) [µM]	IC50 (SMN2 mRNA) [µM]
Cc1cn2nc(-c3nc4sc(C5CCNCC5)cc4s3)cc(C)c2n1 [Compound 112, 4-(2-[2,8-dimethylimidazo[1,2-b]pyridazin-6-yl]thieno[2,3-d][1,3]thiazol-5-yl)piperidine]	< 0.1	< 0.1	< 0.1	< 0.1	< 0.1	< 0.1	< 0.1	< 0.1
CC1CN(c2cc3sc(-c4cc(F)c5nn(C)cc5c4)nc3s2)CCN1C (stereo not drawn) [Compound 128, 5-[5-(3,4-dimethylpiperazin-1-yl)thieno[2,3-d][1,3]thiazol-2-yl]-7-fluoro-2-methylindazole]	1 to 10	1 to 10	1 to 10	1 to 10	1 to 10	1 to 10	1 to 10	0.1 to 1
Cc1cn2nc(-c3nc4sc(C5=CCOCC5)cc4s3)cc(C)c2n1 [Compound 195, 6-[5-(3,6-dihydro-2H-pyran-4-yl)thieno[2,3-d][1,3]thiazol-2-yl]-2,8-dimethylimidazo[1,2-b]pyridazine]	0.1 to 1	0.1 to 1	0.1 to 1	0.1 to 1	0.1 to 1	0.1 to 1	0.1 to 1	0.1 to 1
Cn1cc2cc(-c3nc4sc(C5CCNCC5)cn4n3)cc(F)c2n1 [Compound 103, 7-fluoro-2-methyl-5-[5-(piperidin-4-yl)-[1,2,4]triazolo[3,2-b][1,3]thiazol-2-yl]indazole]	> 10	> 10	> 10	> 10	> 10	> 10	> 10	> 10
Cn1cc2cc(-c3nc4sc(N5CCC(NC(C)(C)C)C5)cc4s3)cc(F)c2n1 (stereo not drawn) [Compound 143, N-tert-butyl-1-[2-(7-fluoro-2-methylindazol-5-yl)thieno[2,3-d][1,3]thiazol-5-yl]pyrrolidin-3-amine]	1 to 10	1 to 10	1 to 10	1 to 10	0.1 to 1	1 to 10	0.1 to 1	0.1 to 1
COc1c(-c2nc3sc(C4CCNCC4)cc3s2)cc(F)c2nn(C)cc12 [Compound 237, 7-fluoro-4-methoxy-2-methyl-5-[5-(piperidin-4-yl)thieno[2,3-d][1,3]thiazol-2-yl]indazole]	> 10	> 10	> 10	> 10	> 10	1 to 10	> 10	> 10
Cc1cn2nc(-c3nc4sc(C5CCNC5)cc4s3)cc(C)c2n1 (stereo not drawn) [Compound 197, 3-(2-{2,8-dimethylimidazo[1,2-b]pyridazin-6-yl}thieno [2,3-d][1,3]thiazol-5-yl)pyrrolidine]	0.1 to 1	0.1 to 1	0.1 to 1	1 to 10	0.1 to 1	0.1 to 1	0.1 to 1	0.1 to 1
Cc1cn2nc(-c3nc4sc(C5CNC5)cc4s3)cc(C)c2n1 [Compound 235, 3-(2-{2,8-dimethylimidazo[1,2-b]pyridazin-6-yl}thieno[2,3-d][1,3]thiazol-5-yl) azetidine]	1 to 10	1 to 10	1 to 10	1 to 10	1 to 10	1 to 10	1 to 10	0.1 to 1
Cn1cc2cc(-n3cc4sc(C5CCNCC5)cc4n3)ccc2n1 [Compound 100, 2-methyl-5-[5-(piperidin-4-yl)thieno[3,2-c]pyrazol-2-yl]indazole]	1 to 10	–	1 to 10	> 10	> 10	> 10	> 10	–
Cn1cc2cc(-c3nc4sc(N5CCNCC5)cc4s3)cc(F)c2n1 [Compound 134, 7-fluoro-2-methyl-5-[5-(piperazin-1-yl)thieno[2,3-d][1,3]thiazol-2-yl]indazole]	< 0.1	0.1 to 1	< 0.1	0.1 to 1	0.1 to 1	0.1 to 1	0.1 to 1	< 0.1
Cn1cc2cc(-c3cn4nc(C5CCNCC5)nc4s3)cc(F)c2n1 [Compound 102, 7-fluoro-2-methyl-5-[2-(piperidin-4-yl)-[1,2,4]triazolo[3,2-b][1,3]thiazol-5-yl]indazole]	0.1 to 1	0.1 to 1	0.1 to 1	0.1 to 1	1 to 10	0.1 to 1	1 to 10	< 0.1
Cn1cc2cc(-c3nc4sc(C5CCNCC5)cc4s3)cc(F)c2n1 [Compound 106, 7-fluoro-2-methyl-5-[5-(piperidin-4-yl)thieno[2,3-d][1,3]thiazol-2-yl]indazole]	< 0.1	< 0.1	< 0.1	< 0.1	< 0.1	< 0.1	< 0.1	< 0.1
Cn1cc2cc(-c3nc4sc(N5CCC6(CCN6)C5)cc4s3)cc(F)c2n1 (stereo not drawn) [Compound 233, 5-(5-{1,6-diazaspiro[3.4]octan-6-yl}thieno[2,3-d][1,3]thiazol-2-yl)-7-fluoro-2-methylindazole]	1 to 10	1 to 10	1 to 10	> 10	1 to 10	1 to 10	1 to 10	< 0.1

Reference: patent publication US20250109140A1, “5-[5-(PIPERIDIN-4-YL)THIENO[3,2-C]PYRAZOL-2-YL]INDAZOLE DERIVATIVES AND RELATED COMPOUNDS AS MODULATORS FOR SPLICING NUCLEIC ACIDS AND FOR THE TREATMENT OF PROLIFERATIVE DISEASES” (REMIX THERAPUTICS INC., priority 2022, published 2025)
